Results reported in patent US11358969B2, “Indole AHR inhibitors and uses thereof” (Ikena Oncology, Inc., priority 2017, dated 2022).

What follows are compounds tested against T1, AHR (UniProt P35869) (assay: DRE-Luciferase Reporter Assay (Alternate Method) (Example 1B)). Details: cell line and AHR activating ligand not specified.
T1 construct: IC50
T1 sequence (P35869 1-848): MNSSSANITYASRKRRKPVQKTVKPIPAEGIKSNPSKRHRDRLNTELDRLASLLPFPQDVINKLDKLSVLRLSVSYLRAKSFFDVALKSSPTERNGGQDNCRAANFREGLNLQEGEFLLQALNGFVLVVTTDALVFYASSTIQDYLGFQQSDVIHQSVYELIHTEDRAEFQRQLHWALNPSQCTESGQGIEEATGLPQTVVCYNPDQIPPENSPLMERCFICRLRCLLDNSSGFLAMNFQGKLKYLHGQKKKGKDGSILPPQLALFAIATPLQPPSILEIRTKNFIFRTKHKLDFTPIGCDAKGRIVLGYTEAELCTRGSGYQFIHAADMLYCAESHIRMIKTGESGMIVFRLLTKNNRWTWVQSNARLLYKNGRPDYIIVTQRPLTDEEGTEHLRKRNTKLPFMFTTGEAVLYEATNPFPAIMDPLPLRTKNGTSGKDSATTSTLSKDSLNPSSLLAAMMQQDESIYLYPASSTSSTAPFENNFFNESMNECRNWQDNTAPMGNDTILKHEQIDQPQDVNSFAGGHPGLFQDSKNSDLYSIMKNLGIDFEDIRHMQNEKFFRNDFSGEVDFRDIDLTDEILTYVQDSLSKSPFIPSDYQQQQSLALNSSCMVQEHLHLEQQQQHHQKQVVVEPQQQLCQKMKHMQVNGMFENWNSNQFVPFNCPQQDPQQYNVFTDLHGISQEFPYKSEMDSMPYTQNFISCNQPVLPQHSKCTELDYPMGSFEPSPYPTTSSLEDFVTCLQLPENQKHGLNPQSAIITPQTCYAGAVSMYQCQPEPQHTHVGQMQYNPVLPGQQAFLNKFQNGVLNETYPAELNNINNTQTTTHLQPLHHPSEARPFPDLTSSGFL
Assay type: cell-based, murine or human

**Q.** With `Cc1cnn2c(NCCc3cccc(O)c3)cc(-c3cncc(F)c3)nc12` [I-210, 3-[2-[[5-(5-fluoro-3-pyridyl)-3-methyl-pyrazolo[1,5-a]pyrimidin-7-yl]amino]ethyl]phenol] as the compound, how does the IC50 read?
**A.** Its IC50 is 1000 to 1500 nM.

**Q.** `Cc1cnn2c(NCCc3ccc(N)cc3)cc(-c3cncc(F)c3)nc12` [I-211, N-[2-(4-Aminophenyl)ethyl]-5-(5-fluoro-3-pyridyl)-3-methyl-pyrazolo[1,5-a]pyrimidin-7-amine] was tested. Which IC50 did it give?
**A.** The IC50 was greater than 1500 nM.

**Q.** `CC(C)c1cnn2c(N[C@H]3CCc4[nH]c5c(F)cccc5c4C3)cc(-c3cncc(F)c3)nc12` [I-212] was tested. Which IC50 did it give?
**A.** Its IC50 is greater than 1500 nM.

**Q.** Which IC50 does the source give for `Cc1cnn2c(NCCc3ccc(O)cc3)cc(-c3cncc(F)c3)nc12` [I-213, 4-[2-[[5-(5-fluoro-3-pyridyl)-3-methyl-pyrazolo[1,5-a]pyrimidin-7-yl]amino]ethyl]phenol] here?
**A.** The IC50 was less than 500 nM.

**Q.** For `Cc1cnn2c(NCCc3c[nH]c4ccc(O)cc34)cc(-c3cncc(F)c3)nc12` [I-215, 3-[2-[[5-(5-Fluoro-3-pyridyl)-3-methyl-pyrazolo[1,5-a]pyrimidin-7-yl]amino]ethyl]-1H-indol-5-ol], which IC50 is on record?
**A.** Its IC50 is greater than 1500 nM.

**Q.** Which IC50 does the source give for `Cc1cnn2c(N[C@@H]3CCc4[nH]c5c(F)cccc5c4C3)cc(-c3cncc(F)c3)nc12` [I-216a, (3R)-8-Fluoro-N-[5-(5-fluoro-3-pyridyl)-3-methyl-pyrazolo[1,5-a]pyrimidin-7-yl]-2,3,4,9-tetrahydro-1H-carbazol-3-amine] here?
**A.** The IC50 was 500 to 1000 nM.

**Q.** `Cc1cnn2c(N[C@H]3CCc4[nH]c5c(F)cccc5c4C3)cc(-c3cncc(F)c3)nc12` [I-216b] was tested. Which IC50 did it give?
**A.** Its IC50 is greater than 1500 nM.

**Q.** `Cc1cnn2c(NCCc3ccccc3)cc(-c3cncc(F)c3)nc12` [I-218, 5-(5-fluoro-3-pyridyl)-3-methyl-N-(2-phenylethyl)pyrazolo[1,5-a]pyrimidin-7-amine] was tested. Which IC50 did it give?
**A.** Its IC50 is less than 500 nM.

**Q.** For `CC(C)c1cnn2c(N[C@H]3Cc4ccc(O)cc4C3)cc(-c3cncc(F)c3)nc12` [I-220, (2S)-2-[[5-(5-fluoro-3-pyridyl)-3-isopropyl-pyrazolo[1,5-a]pyrimidin-7-yl]amino]indan-5-ol], which IC50 is on record?
**A.** Its IC50 is less than 500 nM.

**Q.** For `CC(C)c1cnn2c(NC3CCc4[nH]c5c(F)cccc5c4C3)cc(-c3cncc(F)c3)nc12` (stereo not shown) [I-221], which IC50 is on record?
**A.** Its IC50 is greater than 1500 nM.

**Q.** Which IC50 does the source give for `Cc1[nH]c2c(F)cccc2c1CCNc1cc(-c2cncc(F)c2)nc2c(C(=O)N3CCOCC3)cnn12` [I-225, [7-[2-(7-Fluoro-2-methyl-1H-indol-3-yl)ethylamino]-5-(5-fluoro-3-pyridyl)pyrazolo[1,5-a]pyrimidin-3-yl]-morpholino-methanone] here?
**A.** Its IC50 is less than 500 nM.

**Q.** With `Fc1cncc(-c2cc(NCCc3c[nH]c4ccccc34)n3ncc(C4CCCO4)c3n2)c1` (stereo not shown) [I-226, 5-(5-Fluoro-3-pyridyl)-N-[2-(1H-indol-3-yl)ethyl]-3-tetrahydrofuran-2-yl-pyrazolo[1,5-a]pyrimidin-7-amine] as the compound, how does the IC50 read?
**A.** Its IC50 is less than 500 nM.

**Q.** `CC(C)c1cnn2c(NCCc3c[nH]c4ccccc34)cc(-c3cccc4c3OCO4)nc12` [I-227, 5-(1,3-Benzodioxol-4-yl)-N-[2-(1H-indol-3-yl)ethyl]-3-isopropyl-pyrazolo[1,5-a]pyrimidin-7-amine] was tested. Which IC50 did it give?
**A.** The IC50 was less than 500 nM.

**Q.** With `CC(C)c1cnn2c(NC3CCc4[nH]c5ccccc5c4C3)cc(-c3cccc4c3OCO4)nc12` (stereo not shown) [I-228] as the compound, how does the IC50 read?
**A.** Its IC50 is greater than 1500 nM.

**Q.** `CC(C)c1cnn2c(N[C@@H]3CCc4[nH]c5ccccc5c4C3)cc(-c3cncnc3)nc12` [I-229, (3R)—N-(3-Isopropyl-5-pyrimidin-5-yl-pyrazolo[1,5-a]pyrimidin-7-yl)-2,3,4,9-tetrahydro-1H-carbazol-3-amine] was tested. Which IC50 did it give?
**A.** Its IC50 is greater than 1500 nM.

**Q.** Which IC50 does the source give for `C=Cc1cnn2c(NCCc3c[nH]c4ccccc34)cc(-c3cncc(F)c3)nc12` [I-230, 5-(5-Fluoro-3-pyridyl)-N-[2-(1H-indol-3-yl)ethyl]-3-vinyl-pyrazolo[1,5-a]pyrimidin-7-amine] here?
**A.** Its IC50 is less than 500 nM.

**Q.** For `NC(=O)c1cnn2c(NC3CCc4[nH]c5c(F)cccc5c4C3)cc(-c3cncc(F)c3)nc12` (stereo not shown) [I-231], which IC50 is on record?
**A.** The IC50 was greater than 1500 nM.

**Q.** `Cc1cnn2c(N[C@@H]3Cc4ccc(O)cc4C3)cc(-c3cncc(F)c3)nc12` [I-232, (2R)-2-[[5-(5-Fluoro-3-pyridyl)-3-methyl-pyrazolo[1,5-a]pyrimidin-7-yl]amino]indan-5-ol] was tested. Which IC50 did it give?
**A.** Its IC50 is less than 500 nM.

**Q.** For `CC(C)n1cnc2c(NCCc3ccc(O)cc3)nc(-c3csc4ccccc34)nc21` [I-233], which IC50 is on record?
**A.** Its IC50 is 500 to 1000 nM.

**Q.** `CC(C)c1cnn2c(N[C@@H]3Cc4ccc(O)cc4C3)cc(-c3cncc(F)c3)nc12` [I-234, (2R)-2-[[5-(5-Fluoro-3-pyridyl)-3-isopropyl-pyrazolo[1,5-a]pyrimidin-7-yl]amino]indan-5-ol] was tested. Which IC50 did it give?
**A.** The IC50 was 500 to 1000 nM.

**Q.** `COc1cncc(-c2cc(NC3CCc4[nH]c5ccccc5c4C3)n3ncc(C(C)C)c3n2)c1` (stereo not shown) [I-236] was tested. Which IC50 did it give?
**A.** The IC50 was greater than 1500 nM.

**Q.** How did the IC50 turn out when `CCc1cnn2c(NCCc3c[nH]c4ccccc34)cc(-c3cncc(F)c3)nc12` [I-237, 3-Ethyl-5-(5-fluoro-3-pyridyl)-N-[2-(1H-indol-3-yl)ethyl]pyrazolo[1,5-a]pyrimidin-7-amine] was run?
**A.** Its IC50 is less than 500 nM.

**Q.** Which IC50 does the source give for `CC(C)c1cnn2c(NC3CCc4[nH]c5ccccc5c4C3)cc(-c3cccc(F)c3)nc12` (stereo not shown) [I-238] here?
**A.** The IC50 was greater than 1500 nM.

**Q.** With `CC(C)c1cnn2c(NC3CCc4[nH]c5ccccc5c4C3)cc(-c3ccc4c(c3)OCO4)nc12` (stereo not shown) [I-239] as the compound, how does the IC50 read?
**A.** The IC50 was greater than 1500 nM.

**Q.** `COc1ccccc1-c1cc(NCCc2c[nH]c3ccccc23)n2ncc(C(C)C)c2n1` [I-240, N-[2-(1H-indol-3-yl)ethyl]-3-isopropyl-5-(2-methoxyphenyl)pyrazolo[1,5-a]pyrimidin-7-amine] was tested. Which IC50 did it give?
**A.** The IC50 was greater than 1500 nM.

**Q.** How did the IC50 turn out when `CC(C)c1cnn2c(NCCc3c[nH]c4ccccc34)cc(-c3cncnc3)nc12` [I-241, N-[2-(1H-Indol-3-yl)ethyl]-3-isopropyl-5-pyrimidin-5-yl-pyrazolo[1,5-a]pyrimidin-7-amine] was run?
**A.** The IC50 was less than 500 nM.

**Q.** For `CC(C)c1cnn2c(NCCc3c[nH]c4ccccc34)cc(-c3cccc(F)c3)nc12` [I-242, 5-(3-fluorophenyl)-N-[2-(1H-indol-3-yl)ethyl]-3-isopropyl-pyrazolo[1,5-a]pyrimidin-7-amine], which IC50 is on record?
**A.** The IC50 was less than 500 nM.

**Q.** `Cc1cnn2c(N[C@@H]3CCc4[nH]c5c(F)cc(F)cc5c4C3)cc(-c3cncc(F)c3)nc12` [I-243a] was tested. Which IC50 did it give?
**A.** Its IC50 is greater than 1500 nM.

**Q.** How did the IC50 turn out when `Cc1cnn2c(N[C@H]3CCc4[nH]c5c(F)cc(F)cc5c4C3)cc(-c3cncc(F)c3)nc12` [I-243b] was run?
**A.** Its IC50 is greater than 1500 nM.

**Q.** How did the IC50 turn out when `CC(C)c1cnn2c(N[C@@H]3CCc4[nH]c5ccccc5c4C3)cc(-c3cccnc3)nc12` [I-245, (3R)—N-[3-Isopropyl-5-(3-pyridyl)pyrazolo[1,5-a]pyrimidin-7-yl]-2,3,4,9-tetrahydro-1H-carbazol-3-amine] was run?
**A.** Its IC50 is greater than 1500 nM.

**Q.** How did the IC50 turn out when `CC(C)c1cnn2c(NCCc3c[nH]c4ccccc34)cc(-c3ccc4c(c3)OCO4)nc12` [I-246, 5-(1,3-Benzodioxol-5-yl)-N-[2-(1H-indol-3-yl)ethyl]-3-isopropyl-pyrazolo[1,5-a]pyrimidin-7-amine] was run?
**A.** The IC50 was 1000 to 1500 nM.

**Q.** For `CC(C)c1cnn2c(N[C@H]3CCc4[nH]c(-c5ccccc5)cc4C3)nc(-c3cncc(F)c3)nc12` [I-249a, 2-(5-Fluoro-3-pyridyl)-8-isopropyl-N-[(5S)-2-phenyl-4,5,6,7-tetrahydro-1H-indol-5-yl]pyrazolo[1,5-a][1,3,5]triazin-4-amine], which IC50 is on record?
**A.** The IC50 was less than 500 nM.

**Q.** `CC(C)c1cnn2c(N[C@@H]3CCc4[nH]c(-c5ccccc5)cc4C3)nc(-c3cncc(F)c3)nc12` [I-249b, 2-(5-Fluoro-3-pyridyl)-8-isopropyl-N-[(5R)-2-phenyl-4,5,6,7-tetrahydro-1H-indol-5-yl]pyrazolo[1,5-a][1,3,5]triazin-4-amine] was tested. Which IC50 did it give?
**A.** Its IC50 is less than 500 nM.

**Q.** `CC(C)c1cnn2c(NC3CCc4[nH]c5ccccc5c4C3)nc(N(C)C)nc12` (stereo not shown) [I-250] was tested. Which IC50 did it give?
**A.** Its IC50 is greater than 1500 nM.

**Q.** For `CN1CCN(C(=O)c2cnn3c(NC4CCc5[nH]c6ccccc6c5C4)nc(-c4cncc(F)c4)nc23)CC1` (stereo not shown) [I-251], which IC50 is on record?
**A.** The IC50 was greater than 1500 nM.

**Q.** For `Fc1cncc(-c2nc(N[C@H]3CCc4[nH]ccc4C3)c3ncccc3n2)c1` [I-252a, 2-(5-Fluoro-3-pyridyl)-N-[(5S)-4,5,6,7-tetrahydro-1H-indol-5-yl]pyrido[3,2-d]pyrimidin-4-amine], which IC50 is on record?
**A.** The IC50 was less than 500 nM.

**Q.** With `Fc1cncc(-c2nc(N[C@@H]3CCc4[nH]ccc4C3)c3ncccc3n2)c1` [I-252b, 2-(5-Fluoro-3-pyridyl)-N-[(5R)-4,5,6,7-tetrahydro-1H-indol-5-yl]pyrido[3,2-d]pyrimidin-4-amine] as the compound, how does the IC50 read?
**A.** The IC50 was less than 500 nM.

**Q.** For `Fc1cncc(-c2nc(N[C@@H]3CCc4[nH]c5ccccc5c4C3)n3ncc(-c4ccn[nH]4)c3n2)c1` [I-253, (3R)—N-[2-(5-Fluoro-3-pyridyl)-8-(1H-pyrazol-5-yl)pyrazolo[1,5-a][1,3,5]triazin-4-yl]-2,3,4,9-tetrahydro-1H-carbazol-3-amine], which IC50 is on record?
**A.** Its IC50 is less than 500 nM.

**Q.** `CC(C)c1cnn2c(N[C@@H]3CCc4[nH]c5ccccc5c4C3)nc(N3CCOCC3)nc12` [I-254, (3R)—N-(8-Isopropyl-2-morpholino-pyrazolo[1,5-a][1,3,5]triazin-4-yl)-2,3,4,9-tetrahydro-1H-carbazol-3-amine] was tested. Which IC50 did it give?
**A.** Its IC50 is greater than 1500 nM.

**Q.** `CC(C)c1cnn2c(N[C@@H]3CCc4[nH]c5ccccc5c4C3)nc(-c3cccnc3)nc12` [I-255, (3R)—N-[8-Isopropyl-2-(3-pyridyl)pyrazolo[1,5-a][1,3,5]triazin-4-yl]-2,3,4,9-tetrahydro-1H-carbazol-3-amine] was tested. Which IC50 did it give?
**A.** The IC50 was less than 500 nM.
